Molecules are shown by their SMILES. Where two headings read alike, the source gives them in different places.

The test system of assay [1] is Escherichia coli 413-1, ATCC 25922. Nature of the assay: Microtiter plate assay, growth inhibition. Format: cell-based. Here is the method: (§1) Stock cultures of Escherichia coli 413-1, ATCC 25922, Salmonella Enteritidis, ATCC 13076, Bacillus subtilis PB6 (Kemin Industries) and Lactobacillus johnsonii D115 (Kemin Industries) were cultured from agar plates held at 4° C. and inoculated into tubes of either Tryptic Soy Broth (TSB) or de Man, Rogosa and Sharpe (MRS) broth. The bacteria were incubated aerobically or anaerobically as appropriate at 37° C. for 20-22 h. All microbial cultures used in this work are strains maintained in an in-house culture collection.
(§2) Stock solutions of 1000 ppm each of carvacrol and thymol standards were prepared in sterile TSB to which 0.1% agar was added for stabilization of the oil:water emulsion (Rasooli et al., 2007; Burt, S. and R. Reinders. 2003. Antibacterial activity of selected plant essential oils against Escherichia coli O157:H7. Letters Appl. Microbiol. 36:162-167). Subsequent dilutions and/or combinations of the standard stock solutions were prepared in TSB to achieve the targeted inclusion level of each molecule.
(§3) Stock solutions of 1000 ppm were made of each of the HC and HT extracted oils in sterile TSB or MRS broth to which 0.1% agar was added. Subsequent dilutions and/or combinations of the extracted oil stock solutions were prepared in TSB or MRS to achieve the targeted inclusion level of each molecule.
(§4) The efficacy of carvacrol and thymol in the inhibition of microbial growth was evaluated in a microtiter plate assay measuring the optical density at 620 nm using an Optimax microtiter plate reader (Molecular Devices, Sunnyvale, Calif.). Plates were read kinetically (aerobic organisms) or endpoint (anaerobic organisms) over 20-24 h while maintaining temperature at 35° C. All results reflect the average optical density measurements of four microtiter wells. A 100 uL aliquot of a test organism (1.0E+06 cfu/mL) in sterile saline and a 100 μL aliquot of experimental treatment were dispensed into individual microtiter plate wells. Treatments prepared in TSB were used for E. coli, S. Enteritidis and PB6 while treatments prepared in MRS broth were used for L. johnsonii D115. Positive controls consisted of 100 μL of test organism in sterile saline and 100 μL of sterile TSB or MRS. Negative controls were made of 100 μL of sterile TSB or MRS and 100 μL of sterile saline (no organisms).
(§5) The inhibitory levels of carvacrol and thymol against selected microorganisms were evaluated through several formulation matrices designed to assess the individual molecules as well as combinations of the molecules. Initially, thirteen formulations were prepared according to the incomplete 4×4 matrix design in Table 1 using 0, 125, 250 and 500 ppm each of carvacrol standard and thymol standard to evaluate the inhibitory activity toward selected microorganisms. […]

Assay [2] has as its system Salmonella Enteritidis, ATCC 13076. Nature of the assay: Microtiter plate assay, growth inhibition. Format: cell-based. To be noted: Salmonella enterica, read-out: level needed to inhibit the growth (MIC). Here is the method: as §1, §2, §3, §4, §5

As for `Cc1ccc(C(C)C)c(O)c1` [thymol], the minimal inhibitory concentration (MIC) (as a rule, the least concentration at which growth counts as inhibited) in assay [1] (ATCC25922, microtiter plate, OD 620 nm, 20-24 h, 35° C., read-out: level needed to inhibit the growth (MIC)) lay within 125 to 250 µg/mL; in assay [2] (microtiter plate, OD 620 nm, 20-24 h, 35° C.) it was 125 to 250 µg/mL.

As to `Cc1ccc(C(C)C)cc1O` [carvacrol], the MIC in assay [1] (ATCC25922, read-out: level needed to inhibit the growth (MIC)) is 125 to 250 µg/mL; in assay [2], 125 to 250 µg/mL.

The values are drawn from patent US20160157482A1, “Antimicrobial Compositions Containing Carvacrol and Thymol” (Kemin Industries, Inc., priority 2013, published 2016).
